# According to paper PMC3504386 (Chemmedchem, 2010):
# Molecular target: T1, CTP synthetase (CTPS) (Trypanosoma brucei, UniProt Q4GZ95)
# T1 construct: gene TB927.1.1240
# Assay: coupled spectrophotometric enzyme assay (pyruvate kinase/lactate dehydrogenase), […] min pre-incubation on ice
# Assay type: biochemical
# T1 sequence (Q4GZ95 entry or part of it): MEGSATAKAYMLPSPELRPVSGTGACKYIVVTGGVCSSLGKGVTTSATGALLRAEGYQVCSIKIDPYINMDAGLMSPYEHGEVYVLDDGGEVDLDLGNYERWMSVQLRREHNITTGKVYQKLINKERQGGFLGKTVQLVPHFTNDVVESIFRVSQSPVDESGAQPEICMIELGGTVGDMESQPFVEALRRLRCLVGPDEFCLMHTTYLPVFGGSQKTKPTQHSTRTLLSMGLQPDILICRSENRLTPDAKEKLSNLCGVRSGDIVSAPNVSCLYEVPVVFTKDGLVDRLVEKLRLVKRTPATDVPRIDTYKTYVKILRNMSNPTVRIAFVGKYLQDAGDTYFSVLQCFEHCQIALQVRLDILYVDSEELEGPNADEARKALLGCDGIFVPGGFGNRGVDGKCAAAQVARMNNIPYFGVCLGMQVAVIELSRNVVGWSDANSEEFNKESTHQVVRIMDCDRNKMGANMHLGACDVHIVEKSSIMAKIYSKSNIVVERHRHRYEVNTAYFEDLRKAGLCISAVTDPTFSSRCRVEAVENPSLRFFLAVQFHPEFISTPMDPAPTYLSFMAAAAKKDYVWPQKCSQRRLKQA
row,Structure (SMILES),IC50 [nM]
1,"N[C@H](C(=O)O)[C@@H]1CC(Cl)=NO1 [compound 1, Acivicin]",320 ± 25
2,"N[C@H](C(=O)O)[C@@H]1CC(Br)=NO1 [compound 2, (αS,5S)-α-amino-3-bromo-4,5-dihydroisoxazol-5-yl acetic acid]",98 ± 10
